The values below come from ChEMBL document CHEMBL5728196, “Phenylate derivative, preparation method therefor, and pharmaceutical composition and uses thereof” (2021).

pIC50: −log10 of the molar value.

The pIC50 is the IC50 on a negative log10 scale, so that one unit is a factor of ten.

The target of this assay is Programmed cell death protein 1/Programmed cell death 1 ligand 1 (Homo sapiens, UniProt Q15116+Q9NZQ7). Briefly: Inhibitory Activity Assay: 1. In vitro activity evaluation: Cisbio PD-1/PD-L1 binding assay kit was applied for the detection method of in vitro enzymology level.Screening Principles and Methods of PD-1/PD-L1 Small Molecule Inhibitors1) Principle: PD-1 protein is with HIS tag, and PD-1 ligand PD-L1 is with hFc tag. Eu labeled anti-hFc antibody and XL665 labeled anti-HIS antibody are combined with the above two label proteins respectively. After laser excitation, energy can be transferred from donor Eu to receptor XL665, allowing XL665 to glow. […] Reagents should be dispensed in the following order. For 384-well white ELISA plate, 2 μl of diluent or target compound diluted with diluent was added to each well, and then 4 μl of PD-1 protein and 4 μl of PD-L1 protein were added per well, incubated for 15 min at room temperature; and 10 μl of a mixture of anti-Tag1-Eu3+ and anti-Tag2-XL665 was added per well and incubated for 1 h to 4 h at room temperature and the fluorescence signals at 665 nm and 620 nm were measured with an Envison instrument. HTRF rate=(665 nm/620 nm)*104. 8-10 concentrations were detected for each compound and IC50 was calculated by Graphpad software. The class given is protein-complex assay.
Chain of Programmed cell death protein 1/Programmed cell death 1 ligand 1 (Q15116 whole entry): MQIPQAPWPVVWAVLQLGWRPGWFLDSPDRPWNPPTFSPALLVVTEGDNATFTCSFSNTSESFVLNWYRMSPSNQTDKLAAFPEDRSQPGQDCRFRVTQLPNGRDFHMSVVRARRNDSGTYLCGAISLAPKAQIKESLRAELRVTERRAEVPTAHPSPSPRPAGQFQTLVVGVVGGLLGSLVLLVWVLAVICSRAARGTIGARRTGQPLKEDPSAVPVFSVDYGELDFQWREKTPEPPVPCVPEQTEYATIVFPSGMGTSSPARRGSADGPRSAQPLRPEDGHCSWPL
Chain of Programmed cell death protein 1/Programmed cell death 1 ligand 1 (Q9NZQ7 whole entry): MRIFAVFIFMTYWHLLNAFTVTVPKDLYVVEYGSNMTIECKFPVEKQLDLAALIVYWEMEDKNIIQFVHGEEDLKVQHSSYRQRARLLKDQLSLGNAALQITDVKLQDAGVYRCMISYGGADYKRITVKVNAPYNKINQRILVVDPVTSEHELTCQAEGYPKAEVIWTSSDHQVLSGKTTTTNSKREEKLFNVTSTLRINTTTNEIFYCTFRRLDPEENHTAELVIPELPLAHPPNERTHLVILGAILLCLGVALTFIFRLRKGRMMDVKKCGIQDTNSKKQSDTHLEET

For the compound `NC(=O)COc1cc(OCc2cccc(-c3ccc4c(c3)OCCO4)c2Br)c(Cl)cc1CN1C[C@@H](O)C[C@H]1C(=O)O`, the pIC50 is 6.74.
